This note sets out measurements from ChEMBL document CHEMBL5321277, “Discovery and Mechanism Study of SARS-CoV-2 3C-like Protease Inhibitors with a New Reactive Group” (J Med Chem, 2023).

Assay [1] deals with Replicase polyprotein 1ab (Severe acute respiratory syndrome coronavirus 2) (UniProt P0DTD1). Nature of the assay: Inhibition of N-terminal His6-tagged recombinant full length SARS-CoV-2 3CLpro expressed in Escherichia coli BL21(DE3) assessed as Kobs, ratio of Kinact/Ki using MCA-AVLQSGFR-Lys(Dnp)-Lys-NH2 as fluorogenic substrate incubated for 3 hrs by FRET assay.
Assay [2] has as its target T1, Caspase-6 (Homo sapiens, UniProt P55212).
T1 sequence (P55212 whole entry): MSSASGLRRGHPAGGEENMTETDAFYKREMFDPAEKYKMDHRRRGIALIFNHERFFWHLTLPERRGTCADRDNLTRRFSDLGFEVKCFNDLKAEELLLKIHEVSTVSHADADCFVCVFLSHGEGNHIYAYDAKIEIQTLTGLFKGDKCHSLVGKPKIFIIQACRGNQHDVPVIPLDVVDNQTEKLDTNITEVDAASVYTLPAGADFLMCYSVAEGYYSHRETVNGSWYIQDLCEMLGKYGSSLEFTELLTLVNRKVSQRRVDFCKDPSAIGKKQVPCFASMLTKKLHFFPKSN
In words: Inhibition of Caspase-6 (unknown origin).

In assay [3] the target is T2, Replicase polyprotein 1ab (Severe acute respiratory syndrome coronavirus 2, UniProt P0DTD1). In words: Inhibition of N-terminal His6-tagged recombinant full length SARS-CoV-2 3CLpro expressed in Escherichia coli BL21(DE3) assessed as inhibition constant using MCA-AVLQSGFR-Lys(Dnp)-Lys-NH2 as fluorogenic substrate incubated for 3 hrs by FRET assay.
Assay [4] concerns the target Chymotrypsin (Homo sapiens, UniProt Q99895+P17538+P40313+Q6GPI1). Nature of the assay: Inhibition of Chymotrypsin (unknown origin) using N-succinyl-AAPF-AMC as fluorogenic substrate preincubated for 10 mins followed by substrate addition and measured for 10 mins by fluorescence based assay. The assay is classed as protein assay.
In assay [5] the target is T2, Replicase polyprotein 1ab. Nature of the assay: Inhibition of N-terminal His6-tagged recombinant full length SARS-CoV-2 3CLpro expressed in Escherichia coli BL21(DE3) using MCA-AVLQSGFR-Lys(Dnp)-Lys-NH2 as fluorogenic substrate preincubated with compound for 10 mins followed by substrate addition by FRET assay.
The target in assay [6] is T3, Cathepsin G (Homo sapiens, UniProt P08311).
T3 sequence (P08311 whole entry): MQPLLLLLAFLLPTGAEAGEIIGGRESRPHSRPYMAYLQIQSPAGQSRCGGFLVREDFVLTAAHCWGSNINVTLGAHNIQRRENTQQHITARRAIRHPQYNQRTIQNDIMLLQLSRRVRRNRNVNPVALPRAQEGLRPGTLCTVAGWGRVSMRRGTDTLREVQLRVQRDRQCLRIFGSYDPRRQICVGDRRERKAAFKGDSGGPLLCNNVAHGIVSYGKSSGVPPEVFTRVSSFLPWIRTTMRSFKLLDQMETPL
Nature of the assay: Inhibition of Cathepsin G (unknown origin) measured for 1 to 2 hrs by fluorescence based assay.

Assay [7] deals with Cathepsin B (Homo sapiens, UniProt P07858). In words: Inhibition of Cathepsin B (unknown origin) using Z-RR-AMC as fluorogenic substrate preincubated for 10 mins followed by substrate addition and measured for 10 mins by fluorescence based assay.
Assay [8] concerns the target T4, Procathepsin L (Homo sapiens, UniProt P07711). In words: Inhibition of Cathepsin L (unknown origin) using Z-VVR-AMC as fluorogenic substrate preincubated for 10 mins followed by substrate addition and measured for 10 mins by fluorescence based assay.
Target sequence in this assay (P07711 whole entry): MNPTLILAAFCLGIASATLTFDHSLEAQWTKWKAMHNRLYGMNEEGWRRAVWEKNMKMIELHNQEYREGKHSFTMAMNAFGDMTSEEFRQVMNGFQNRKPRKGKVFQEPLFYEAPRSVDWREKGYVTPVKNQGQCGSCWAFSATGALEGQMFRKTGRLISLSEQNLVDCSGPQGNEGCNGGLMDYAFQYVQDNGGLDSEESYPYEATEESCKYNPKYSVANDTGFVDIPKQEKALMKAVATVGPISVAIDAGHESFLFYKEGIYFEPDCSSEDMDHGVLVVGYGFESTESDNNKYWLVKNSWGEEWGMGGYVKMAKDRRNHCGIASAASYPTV
Assay [9] has as its target T2, Replicase polyprotein 1ab. Nature of the assay: Inhibition of SARS-CoV-2 PLpro using RLRGG-AMC as fluorogenic substrate preincubated with compound for 30 mins followed by substrate addition by fluorescence based microplate reader assay.
Assay [10] deals with T4, Procathepsin L. Nature of the assay: Inhibition of Cathepsin L (unknown origin) using Z-VVR-AMC as fluorogenic substrate at 20 uM preincubated for 10 mins followed by substrate addition and measured for 10 mins by fluorescence based assay. To be noted: time 20.0 min.
Target sequence in this assay (P07711 114-333 limits assumed): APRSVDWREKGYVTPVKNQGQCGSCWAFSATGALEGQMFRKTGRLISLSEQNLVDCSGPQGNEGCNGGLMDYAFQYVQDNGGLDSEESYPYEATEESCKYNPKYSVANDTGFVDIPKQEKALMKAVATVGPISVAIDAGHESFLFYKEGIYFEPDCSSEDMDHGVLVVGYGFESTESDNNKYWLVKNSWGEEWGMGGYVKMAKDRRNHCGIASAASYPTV
Assay [11] deals with SARS-CoV-2. In words: microbe, parasite or virus in culture. Particulars: Severe acute respiratory syndrome coronavirus 2, B1.617.2 (Delta), Vero C1008, 24 h.

Turning to `N#CSCC(=O)N1c2ccccc2Sc2ccc(C#N)cc21`, the Kobs in assay [1] worked out at 1670 M⁻¹ s⁻¹. For the same molecule, the IC50 in assay [2] is greater than 50 µM; in [4], greater than 100 µM; in assay [5], 0.322 µM; in assay [6] it was greater than 50 µM; in assay [7], greater than 50 µM; in [8], greater than 100 µM. In addition, the half-maximal inhibitory concentration (IC50) in assay [9] is greater than 100 µM. In assay [3], the Ki was 18.1 µM.
As for `COc1ccc2c(c1)N(C(=O)CSC#N)c1ccccc1S2`, the IC50 in assay [5] is 2.9 µM.
On to `N#CSCC(=O)N1c2ccccc2CCc2ccccc21`, for which the Kobs in assay [1] worked out at 327 M⁻¹ s⁻¹. Also, the IC50 in assay [2] was greater than 50 µM; in assay [4] it was greater than 100 µM; in assay [5] it was 2.21 µM; in [6], greater than 50 µM; in [7], greater than 50 µM; in assay [9], greater than 100 µM. Also, the Ki in assay [3] stood at 43.6 µM. Further, the inhibition in assay [10] came out at 70.3%.
Turning to `N#CSCC(=O)N1c2ccccc2Sc2ccc(Cl)cc21`, the IC50 in [5] was 0.524 µM.
Regarding `N#CSCC(=O)N1c2ccccc2Sc2ccccc21`, the IC50 in assay [5] is 1.85 µM.
With `N#CSCC(=O)N1c2ccccc2Oc2ccccc21`, the IC50 in assay [5] was 3.96 µM. In addition, the EC50 in assay [11] came to 5.38 µM.
Take `CCSc1ccc2c(c1)N(C(=O)CSC#N)c1ccccc1S2`: the IC50 in assay [5] is 2.64 µM.
`CC(=O)c1ccc2c(c1)N(C(=O)CSC#N)c1ccccc1S2`: the 50% inhibitory concentration (IC50) in assay [5] worked out at 1.06 µM.
For `N#CSCC(=O)N1c2ccccc2Sc2ccc(C(F)(F)F)cc21`, in [5], the concentration for half-maximal inhibition (IC50) was determined as 4.6 µM. The same molecule yielded an EC50 in [11] of 3.14 µM.
Consider `CCC(=O)c1ccc2c(c1)N(C(=O)CSC#N)c1ccccc1S2`, for which, in assay [5], the 50% inhibitory concentration (IC50) turned out to be 3.33 µM.
With `N#CSCC(=O)N1c2ccccc2CCc2ccc(Cl)cc21`, the Ki in assay [3] was determined as 24.9 µM. Moreover, the IC50 in [5] was found to be 0.478 µM. This molecule displayed a half-maximal effective concentration (EC50) in assay [11] of 2.5 µM.

The term IC50 denotes the concentration at which inhibition is half-maximal. The term Ki denotes the equilibrium dissociation constant of an inhibitor or competing ligand from its target. For orientation: inhibition means the percentage by which the read-out fell short of the control. A higher inhibition goes with strong suppression. A word on the EC50: it is the concentration giving half of the maximal effect.
